# According to US9695155B2, “Herbicidal substituted pyrimidinyloxy benzene compounds” (E. I. DU PONT DE NEMOURS AND COMPANY, priority 2013, dated 2017):
# Legend:
# corn = assay: Test A postemergence; assay type: in vivo, Zea mays; conditions: 0 to 100 scale where 0 is no effect and 100 is complete control
# How it was run: (§1)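 Compounds in non-phytotoxic solvent with surfactant applied as soil spray preemergence, or postemergence to plants 2-10 cm at one- to two-leaf stage, in loam/sand. After approximately 10 days in greenhouse, injury rated visually versus untreated controls, 0 (no effect) to 100 (complete control).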
# oilseed rape = assay: Test C preemergence; assay type: in vivo, Brassica napus; conditions: for Oilseed Rape plant response rating: preemergence; for Plant response rating, Oilseed Rape: Preemergence, scale 0 to 100, 0 no effect, 100 complete control
# How it was run: (§2)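 Preemergence: seeds sown in a loam soil–sand blend and sprayed with test chemical in a non-phytotoxic solvent mixture containing surfactant. Postemergence: plants at 2 to 18 cm (1- to 4-leaf stage) in peat-based medium, treated with the same formulation. Greenhouse 13 to 15 days, then visual rating 0 (no effect) to 100 (complete control).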
# wild oat = assay: Test C postemergence; assay type: in vivo, Avena fatua
# How it was run: as §2
# velvetleaf = assay: Test A preemergence; assay type: in vivo, Abutilon theophrasti
# How it was run: as §1
# Italian ryegrass = assay: Test C preemergence; assay type: in vivo, Lolium multiflorum; conditions: for Ryegrass, Italian plant response rating: preemergence; for Plant response rating, Ryegrass, Italian: Preemergence, scale 0 to 100, 0 no effect, 100 complete control
# How it was run: as §2
# wheat = assay: Test A preemergence; assay type: in vivo, Triticum aestivum
# How it was run: as §1
# barnyardgrass [1] = assay: Test C preemergence; assay type: in vivo, Echinochloa crus-galli; conditions: for Barnyardgrass plant response rating: preemergence; for Plant response rating, Barnyardgrass: Preemergence, scale 0 to 100, 0 no effect, 100 complete control
# How it was run: as §2
# large (Lg) crabgrass = assay: Test C preemergence; assay type: in vivo, Digitaria sanguinalis; conditions: for Crabgrass, Large plant response rating: preemergence; for Plant response rating, Crabgrass, Large: Preemergence, scale 0 to 100, 0 no effect, 100 complete control
# How it was run: as §2
# chickweed = assay: Test C postemergence; assay type: in vivo, Stellaria media; conditions: for Chickweed plant response rating / Plant response rating, Chickweed: scale 0 to 100 (0 no effect, 100 complete control)
# How it was run: as §2
# galium = assay: Test C preemergence; assay type: in vivo, Galium aparine; conditions: for Galium plant response rating: preemergence; for Plant response rating, Galium: Preemergence, scale 0 to 100, 0 no effect, 100 complete control
# How it was run: as §2
# barnyardgrass [2] = assay: Test B flooded paddy test; assay type: in vivo, Echinochloa crus-galli; conditions: Flood, 250 g ai/ha; 0 to 100 scale where 0 is no effect and 100 is complete control
# How it was run: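 Plants were grown to the 2-leaf stage, then pots were flooded to 3 cm above the soil and compounds were applied directly into the paddy water. That depth was held throughout, and after 13 to 15 days in the greenhouse injury was rated visually against controls on a 0–100 scale (0 no effect, 100 complete control).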
# soybean = assay: Test C preemergence; assay type: in vivo, Glycine max; conditions: for Soybean plant response rating: preemergence; for Plant response rating, Soybean: Preemergence, scale 0 to 100, 0 no effect, 100 complete control
# How it was run: as §2
# barnyardgrass [3] = assay: Test A preemergence; assay type: in vivo, Echinochloa crus-galli; conditions: for Barnyardgrass plant response rating: 500 g ai/ha
# How it was run: as §1
# morningglory = assay: Test A preemergence; assay type: in vivo, Ipomoea spp.; conditions: for Morningglory plant response rating: 500 g ai/ha
# How it was run: as §1
# [4] = 16 g ai/ha, scale 0 to 100 (0 no effect, 100 complete control)
# [5] = 62 g ai/ha, scale 0 (no effect) to 100 (complete control)
# [6] = 125 g ai/ha, scale 0 (no effect) to 100 (complete control)
# [7] = 125 g ai/ha, postemergence, visual rating, scale 0 to 100 (0 no effect, 100 complete control)
# [8] = 125 g ai/ha, 0 to 100 scale where 0 is no effect and 100 is complete control
# [9] = 125 g ai/ha, postemergence, visual rating
# [10] = 0 to 100 scale, 0 no effect, 100 complete control, approx. 10 days
# [11] = 16 g ai/ha, postemergence, 0 is no effect, 100 is complete control
# [12] = 500 g ai/ha, 0 to 100 scale where 0 is no effect and 100 is complete control
# [13] = 0 to 100 scale where 0 is no effect and 100 is complete control
compound,measurement,setting,value
N#Cc1cnn(-c2c(C#N)cccc2Oc2ncc(F)cn2)c1 [Compound 111],"Plant response rating, Corn",corn; 125 g ai/ha,30
same,"Plant response rating, Corn",corn; 500 g ai/ha,90
same,Oilseed Rape plant response rating,oilseed rape; [4],60
same,Oilseed Rape plant response rating,oilseed rape; [5],98
same,Oilseed Rape plant response rating,oilseed rape; [6],100
same,"Plant response rating, Oilseed Rape",oilseed rape; 31 g ai/ha,90
same,"Plant response rating, Oat, Wild",wild oat; [7],5
same,"Plant response rating, Oat, Wild","wild oat; Postemergence, 62 g ai/ha, scale 0 to 100 (0 no effect, 100 complete control)",5
same,"Plant response rating, Velvetleaf",velvetleaf; [8],70
same,"Ryegrass, Italian plant response rating",Italian ryegrass; [4],0
same,"Ryegrass, Italian plant response rating",Italian ryegrass; [5],40
same,"Ryegrass, Italian plant response rating",Italian ryegrass; [6],60
same,"Plant response rating, Ryegrass, Italian",Italian ryegrass; 31 g ai/ha,0
same,"Plant response rating, Wheat",wheat; [8],0
same,Barnyardgrass plant response rating,barnyardgrass [1]; [4],5
same,Barnyardgrass plant response rating,barnyardgrass [1]; [5],90
same,Barnyardgrass plant response rating,barnyardgrass [1]; [6],100
same,"Plant response rating, Barnyardgrass",barnyardgrass [1]; 31 g ai/ha,55
same,"Crabgrass, Large plant response rating",large (Lg) crabgrass; [4],98
same,"Crabgrass, Large plant response rating",large (Lg) crabgrass; [5],100
same,"Crabgrass, Large plant response rating",large (Lg) crabgrass; [6],100
same,"Plant response rating, Crabgrass, Large",large (Lg) crabgrass; 31 g ai/ha,100
same,Chickweed plant response rating,"chickweed; 16 g ai/ha, postemergence, visual rating, 13 to 15 days",50
same,"Plant response rating, Chickweed",chickweed; [9],95
same,"Plant response rating, Chickweed","chickweed; Postemergence, 62 g ai/ha",75
same,Galium plant response rating,galium; [4],90
same,Galium plant response rating,galium; [5],100
same,Galium plant response rating,galium; [6],75
same,"Plant response rating, Galium",galium; 31 g ai/ha,100
same,"Plant response rating, Barnyardgrass",barnyardgrass [2],0
same,Soybean plant response rating,soybean; [4],30
same,Soybean plant response rating,soybean; [5],80
same,Soybean plant response rating,soybean; [6],95
same,"Plant response rating, Soybean",soybean; 31 g ai/ha,60
same,"Plant response rating, Barnyardgrass",barnyardgrass [3]; [8],90
same,Barnyardgrass plant response rating,barnyardgrass [3]; [10],100
same,"Plant response rating, Morningglory",morningglory; [8],90
same,Morningglory plant response rating,morningglory; [10],100
N#Cc1cnn(-c2c(Oc3ncc(Cl)cn3)cccc2C(F)F)c1 [Compound 236],Corn plant response rating,corn; 125 g ai/ha,70
same,"Plant response rating, Corn",corn; 500 g ai/ha,100
same,Oilseed Rape plant response rating,oilseed rape; [4],80
same,Oilseed Rape plant response rating,oilseed rape; [6],100
same,"Plant response rating, Oilseed Rape",oilseed rape; 62 g ai/ha,100
same,"Plant response rating (0 to 100), Oat, Wild",wild oat; [11],0
same,"Oat, Wild plant response rating","wild oat; 31 g ai/ha, postemergence, visual rating, scale 0 to 100 (0 no effect, 100 complete control), 13 to 15 days",0
same,"Plant response rating, Oat, Wild",wild oat; [7],5
same,"Plant response rating, Oat, Wild","wild oat; Postemergence, 62 g ai/ha, scale 0 to 100 (0 no effect, 100 complete control), 13 to 15 days",5
same,Velvetleaf plant response rating (0 to 100 scale),velvetleaf; 125 g ai/ha,100
same,Velvetleaf plant response rating,velvetleaf; [12],100
same,"Ryegrass, Italian plant response rating",Italian ryegrass; [4],0
same,"Ryegrass, Italian plant response rating",Italian ryegrass; [6],85
same,"Plant response rating, Ryegrass, Italian",Italian ryegrass; 62 g ai/ha,45
same,Wheat plant response rating (0 to 100 scale),wheat; 125 g ai/ha,0
same,Wheat plant response rating,wheat; [12],100
same,Barnyardgrass plant response rating,barnyardgrass [1]; [4],10
same,Barnyardgrass plant response rating,barnyardgrass [1]; [6],100
same,"Plant response rating, Barnyardgrass",barnyardgrass [1]; 62 g ai/ha,98
same,"Crabgrass, Large plant response rating",large (Lg) crabgrass; [4],90
same,"Crabgrass, Large plant response rating",large (Lg) crabgrass; [6],100
same,"Plant response rating, Crabgrass, Large",large (Lg) crabgrass; 62 g ai/ha,100
same,"Plant response rating (0 to 100), Chickweed",chickweed; [11],40
same,Chickweed plant response rating,"chickweed; 31 g ai/ha, postemergence, visual rating, 13 to 15 days",50
same,"Plant response rating, Chickweed",chickweed; [9],50
same,"Plant response rating, Chickweed","chickweed; Postemergence, 62 g ai/ha, 13 to 15 days",65
same,Galium plant response rating,galium; [4],90
same,Galium plant response rating,galium; [6],100
same,"Plant response rating, Galium",galium; 62 g ai/ha,100
same,"Plant response rating, Barnyardgrass",barnyardgrass [2],30
same,Soybean plant response rating,soybean; [4],35
same,Soybean plant response rating,soybean; [6],95
same,"Plant response rating, Soybean",soybean; 62 g ai/ha,90
same,"Barnyardgrass plant response rating (0 to 100 scale, 0 is no effect, 100 is complete control)",barnyardgrass [3]; 125 g ai/ha,100
same,Barnyardgrass plant response rating,barnyardgrass [3]; [13],100
same,Morningglory plant response rating (0 to 100 scale),morningglory; 125 g ai/ha,30
same,Morningglory plant response rating,morningglory; [13],100
